# Laboratory results reported in US7691572B2, “Method and kit for detecting resistance to antiviral drugs” (priority 1998, dated 2010).
# Read-outs that look alike come from different tables or passages of the source.
# Key:
# [1] = test system: HIV-1 RT; conditions: cited from earlier work
# [2] = test system: patient-derived HIV-1; conditions: read-out: IC50 Culture based assay, cited from earlier work
# [3] = test system: HIV-1 reference viruses; conditions: read-out: IC50 Culture based assay, cited from earlier work
# [4] = test system: HIV-1; conditions: cited from earlier work
# [5] = molecular target: HIV-1 RT (Human immunodeficiency virus type 1, UniProt P04585, A649V/F664L/F703Y/Q738M/V662I); experiment: Amp-RT assay, AZT-TP and other NRTI-TPs, reference viruses; type: biochemical
# [6] = test system: HIV-1 RT; experiment: as above; type: biochemical
# [7] = molecular target: HIV-1 RT (Human immunodeficiency virus type 1, UniProt P04585, F664L/F703Y/Q738M); experiment: as above; type: biochemical
# [8] = molecular target: T1, HIV-1 RT (Human immunodeficiency virus type 1 group M subtype B, UniProt P04585); experiment: as above; type: biochemical; conditions: WT HIV-1SUM9
# [9] = molecular target: HIV-1 RT (Human immunodeficiency virus type 1, UniProt P04585, Q738M); experiment: as above; type: biochemical
# [10] = test system: HIV-1 reference viruses; experiment: culture-based assay, inhibition of HIV-1-induced cytopathic effect; type: cell-based
# Text: The IC50 values of AZT-TP for WT and MNR reference viruses determined by the Amp-RT assay were compared with previously reported IC50 values determined by a conventional RT assay and a culture-based phenotypic assay (Ueno et al., “Enzymatic characterization of human immunodeficiency virus type 1 reverse transcriptase resistant to multiple 2′,3′-dideoxynucleoside 5′-triphosphates,” J. Biol, Chem. 270: 23605-23611 (1995); Shirasaka et al., “Emergence of human immunodeficiency virus type 1 variants with resistance to multiple dideoxynucleosides in patients receiving therapy with dideoxynucleosides,” Proc. Nat. Acad. Sci. U.S.A. 92: 2398-2402 (1995)).
# [11] = test system: HIV-1; conditions: classical AZT resistance mutations T215Y/F, M41L, D67N, K70R, K219Q/E; cited from earlier work
# [12] = molecular target: HIV-1 RT (Human immunodeficiency virus type 1, UniProt P04585, F664L/S655G/V662I, form not given); type: biochemical; conditions: read-out: IC50 Amp-RT assay; patient-derived virus 15 (L6), S68G, V75I, F77L, K103N, F116Y, Q151M, M184V
# Text: (§1) Four groups of archived HIV-1 specimens with known genotypes were selected for assay validation. These included WT, MNR, MNR carrying unrelated resistance mutations, and non-MNR specimens carrying classical AZT resistance mutations (Schmit et al., “Multiple drug resistance to nucleoside analogues and nonnucleoside reverse transcriptase inhibitors in an efficiently replicating human immunodeficiency virus type 1 patient strain,” J. Infect. Dis. 174: 962-968 (1996); Winters et al., “A 6-base pair insert in the reverse transcriptase gene of human immunodeficiency virus type 1 confers resistance to multiple nucleoside inhibitors,” J. Clin. Invest. 102: 1769-1775 (1998); Adje et al., “High prevalence of genotypic and phenotypic HIV-1 drug-resistant strains among patients receiving antiretroviral therapy in Abidjan, Cote d'Ivoire,” J. Acquired Immune Deficiency Syndromes 26: 501-506 (2001); Weinstock et al., “Prevalence of mutations associated with reduced antiretroviral drug susceptibility among human immunodeficiency virus type 1 seroconverters in the United States, 1993-1998,” J. Infect. Dis. 182: 330-333 (2000)). Forty-four samples were selected which comprised 7 viral stocks and 37 plasma samples obtained from 34 HIV-1-infected persons.
# [13] = molecular target: HIV-1 RT (Human immunodeficiency virus type 1, UniProt P04585, Q738M/S655G); type: biochemical; conditions: read-out: IC50 Amp-RT assay; patient-derived virus 13 (L2), S68G, Q151M
# Text: as §1
# [14] = test system: HIV-1 RT; type: biochemical
# Text: as §1
# [15] = molecular target: T1, HIV-1 RT; type: biochemical; conditions: read-out: IC50 Amp-RT assay; patient-derived virus 12 (L1), None
# Text: as §1
# [16] = molecular target: HIV-1 RT (Human immunodeficiency virus type 1, UniProt P04585, S655G/V662I, form not given); type: biochemical; conditions: read-out: IC50 Amp-RT assay; patient-derived virus 14 (L4), A62A/V, S68G, V75I, F77L, F116Y, Q151M
# Text: as §1
# [17] = test system: patient-derived HIV-1; experiment: culture-based plaque reduction assay (Schmit et al., 1996); type: cell-based
# Text: The results obtained are correlated with the genotypes of the specimens.
# [18] = test system: HIV-1 RT; type: biochemical; remark: listed apart in the source
# [19] = HIV1SUM13 (A62V, V75I, F77L, F116Y, Q151M)
smiles,measurement,setting,value
"Cc1cn([C@H]2C[C@H](N=[N+]=[N-])[C@@H](CO)O2)c(=O)[nH]c1=O [AZT, zidovudine]",IC50,[1]; HIV1SUM8 (Q151M),0.19 µM
same,IC50,[1]; HIV1SUM9 (None),0.023 µM
same,IC50,"[1]; HIV1SUM12 (F77L, F116Y, Q151M)",0.88 µM
same,IC50,[1]; [19],1.5 µM
same,IC50,"[2]; 12 (L1), None",0.006 µM
same,IC50,"[2]; 13 (L2), S68G, Q151M",0.009 µM
same,IC50,"[2]; 14 (L4), A62A/V, S68G, V75I, F77L, F116Y, Q151M",3.8 µM
same,IC50,"[2]; 15 (L6), S68G, V75I, F77L, K103N, F116Y, Q151M, M184V",18.7 µM
same,IC50,[3]; HIV1SUM8 (Q151M),5 µM
same,IC50,[3]; HIV1SUM9 (None),0.5 µM
same,IC50,"[3]; HIV1SUM12 (F77L, F116Y, Q151M)",> 160 µM
same,IC50,[3]; [19],> 160 µM
same,reduced susceptibility to AZT,"[4]; plasma sample HIV-1R598 (D67N, V106A, L214W, L214F, T215Y)",100 fold
same,reduced susceptibility to AZT,"[4]; specimen no. 40 (T215Y, T69S-EA insertions)",100 fold
same,IC50,[5],18 µM
same,fold resistance (IC50) as compared to the mean IC values of WT HIV-1,[6]; MNR HIV-1SUM8 (Q151M),(5) fold
same,fold resistance (IC50) as compared to the mean IC values of WT HIV-1,"[6]; MNR HIV-1SUM12 (F77L, F116Y, Q151M)",(22) fold
same,fold resistance (IC50) as compared to the mean IC values of WT HIV-1,"[6]; MNR HIV-1SUM13 (A62V, V75I, F77L, F116Y, Q151M)",(36) fold
same,IC50,[7],11 µM
same,IC50,[8],0.5 µM
same,IC50,[9],2.5 µM
same,"fold change from IC50 of WT HIV-1, Culture based assay",[10]; HIV1SUM8,(10) fold
same,"fold change from IC50 of WT HIV-1, Culture based assay",[10]; HIV1SUM12,(>320) fold
same,"fold change from IC50 of WT HIV-1, Culture based assay",[10]; HIV1SUM13,(>320) fold
same,resistance to AZT,[11],> 100 fold
same,IC50,[12],14.6 µM
same,IC50,[13],1.35 µM
same,"fold change from IC50 of WT HIV-1, Amp-RT assay",[14]; patient-derived virus 13 (L2),(3.9) fold
same,"fold change from IC50 of WT HIV-1, Amp-RT assay",[14]; patient-derived virus 14 (L4),(23.5) fold
same,"fold change from IC50 of WT HIV-1, Amp-RT assay",[14]; patient-derived virus 15 (L6),(41.8) fold
same,IC50,[15],0.35 µM
same,IC50,[16],8.23 µM
same,"fold change from IC50 of WT HIV-1, Culture based assay",[17]; 13 (L2),(1.5) fold
same,"fold change from IC50 of WT HIV-1, Culture based assay",[17]; 14 (L4),(633) fold
same,"fold change from IC50 of WT HIV-1, Culture based assay",[17]; 15 (L6),(3117) fold
same,"fold change from IC50 of WT HIV-1, RT assay",[18]; HIV1SUM8 (Q151M),(8.3) fold
same,"fold change from IC50 of WT HIV-1, RT assay",[18]; HIV1SUM12,(38) fold
same,"fold change from IC50 of WT HIV-1, RT assay",[18]; HIV1SUM13,(65) fold
